Assay results as given in PubChem BioAssay AID248 (DTP/NCI, 2004).
Toxic doses and inconclusive results are not listed. No stated cut-off is given here; in the data, active means T/C of 150% or more; inactive means T/C below 125%.

Tested on: L1210 leukemia ip in BDF1 mice, survival T/C
Assay: NCI In Vivo Anticancer Drug Screen. Data for tumor model L1210 Leukemia (intraperitoneal) in B6D2F1 (BDF1) mice
Settings: endpoint: mean survival time, higher = longer survival
Summary of the method: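 Read-out is survival time, reported as the treated-group measurement over the vehicle-control measurement.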

[1] = dose: 50.0 mg/kg/injection, schedule: Q01DX001 (ip), vehicle: saline
[2] = dose: 200.0 mg/kg/injection, schedule: Q01DX001 (ip), vehicle: saline
[3] = dose: 100.0 mg/kg/injection, schedule: Q01DX001 (ip), vehicle: saline
[4] = dose: 100.0 mg/kg/injection, schedule: Q04DX002 (ip), vehicle: Klucel (hydroxypropylcellulose) (HPC)
[5] = dose: 200.0 mg/kg/injection, schedule: Q04DX002 (ip), vehicle: Klucel (hydroxypropylcellulose) (HPC)
[6] = dose: 400.0 mg/kg/injection, schedule: Q04DX002 (ip), vehicle: Klucel (hydroxypropylcellulose) (HPC)
[7] = dose: 100.0 mg/kg/injection, schedule: Q01DX001 (ip), vehicle: saline with Tween-80
[8] = dose: 200.0 mg/kg/injection, schedule: Q01DX001 (ip), vehicle: saline with Tween-80
[9] = dose: 400.0 mg/kg/injection, schedule: Q01DX001 (ip), vehicle: saline with Tween-80
[10] = dose: 100.0 mg/kg/injection, schedule: Q01DX009 (ip), vehicle: saline
[11] = dose: 100.0 mg/kg/injection, schedule: Q04DX003 (ip), vehicle: saline
[12] = dose: 200.0 mg/kg/injection, schedule: Q01DX009 (ip), vehicle: saline
[13] = dose: 200.0 mg/kg/injection, schedule: Q04DX003 (ip), vehicle: saline
[14] = dose: 400.0 mg/kg/injection, schedule: Q01DX009 (ip), vehicle: saline
[15] = dose: 400.0 mg/kg/injection, schedule: Q04DX003 (ip), vehicle: saline
[16] = dose: 100.0 mg/kg/injection, schedule: Q01DX009 (ip), vehicle: saline with Tween-80
[17] = dose: 100.0 mg/kg/injection, schedule: Q04DX003 (ip), vehicle: saline with Tween-80
[18] = dose: 200.0 mg/kg/injection, schedule: Q01DX009 (ip), vehicle: saline with Tween-80
[19] = dose: 200.0 mg/kg/injection, schedule: Q04DX003 (ip), vehicle: saline with Tween-80
[20] = dose: 400.0 mg/kg/injection, schedule: Q04DX003 (ip), vehicle: saline with Tween-80
[21] = dose: 400.0 mg/kg/injection, schedule: Q01DX001 (ip), vehicle: saline
[22] = dose: 50.0 mg/kg/injection, schedule: Q01DX009 (ip), vehicle: saline with Tween-80
[23] = dose: 400.0 mg/kg/injection, schedule: Q01DX009 (ip), vehicle: saline with Tween-80

Measured: T/C

Clc1ccc2c(c1)Cc1cc(N=Cc3ccccc3Cl)ccc1-2
inactive: dose: 12.5 mg/kg/injection, schedule: Q01DX001 (ip), vehicle: saline 97 % of control | dose: 12.5 mg/kg/injection, schedule: Q04DX003 (ip), vehicle: saline 92 % of control | dose: 25.0 mg/kg/injection, schedule: Q01DX001 (ip), vehicle: saline 87 % of control | dose: 25.0 mg/kg/injection, schedule: Q04DX003 (ip), vehicle: saline 93 % of control | [1] 106 % of control | dose: 50.0 mg/kg/injection, schedule: Q04DX003 (ip), vehicle: saline 87 % of control | dose: 65.0 mg/kg/injection, schedule: Q01DX Z (ip), vehicle: carboxymethylcellulose (CMC) 90 % of control | dose: 75.0 mg/kg/injection, schedule: Q04DX003 (ip), vehicle: saline 101 % of control | dose: 115.0 mg/kg/injection, schedule: Q04DX003 (ip), vehicle: saline 89 % of control | dose: 125.0 mg/kg/injection, schedule: Q01DX Z (ip), vehicle: carboxymethylcellulose (CMC) 96 % of control | dose: 170.0 mg/kg/injection, schedule: Q04DX003 (ip), vehicle: saline 103 % of control | [2] 89 % of control | dose: 250.0 mg/kg/injection, schedule: Q01DX Z (ip), vehicle: carboxymethylcellulose (CMC) 102 % of control | dose: 500.0 mg/kg/injection, schedule: Q01DX Z (ip), vehicle: carboxymethylcellulose (CMC) 102 % of control

CC(C)(Br)C(=O)C(Br)Br
inactive: [3] 106 % of control | [2] 102 % of control

CCOC(=O)C(CC)(OC(C)=O)C(=O)CBr (stereo not given)
inactive: dose: 75.0 mg/kg/injection, schedule: Q01DX001 (ip), vehicle: acetone 87 % of control

CC(Cc1cc(C)nc(NC#N)n1)=Nc1ccccc1
inactive: [4] 100 % of control | [5] 92 % of control | [6] 100 % of control

CC1(c2ccccc2)OC(=O)c2c1ccc1ccccc21 (stereo not given)
inactive: [7] 94 % of control | [8] 95 % of control | [9] 90 % of control

c1ccc2c3c(ccc2c1)Sc1ccc2ccccc2c1N3
inactive: [10] 102 % of control | [11] 97 % of control | [12] 98 % of control | [13] 111 % of control | [14] 93 % of control | [15] 95 % of control

Cc1nc2c(NC(=O)C(F)(F)F)nn(C)c2nc1C
inactive: [16] 94 % of control | [17] 100 % of control | [18] 92 % of control | [19] 100 % of control | [20] 106 % of control

CC#CCOCC1CO1 (stereo not given)
inactive: [10] 100 % of control | dose: 100.0 mg/kg/injection, schedule: Q04DX003 (ip), vehicle: saline sonified 117 % of control | [12] 99 % of control | dose: 200.0 mg/kg/injection, schedule: Q04DX003 (ip), vehicle: saline sonified 119 % of control | [14] 96 % of control | dose: 400.0 mg/kg/injection, schedule: Q04DX003 (ip), vehicle: saline sonified 106 % of control

CC(C#N)(CCC(=O)O)N=NC(C)(C#N)CCC(=O)O (stereo not given)
inactive: [3] 102 % of control | [2] 103 % of control | [21] 108 % of control

COC1OCC(NC(C)=O)C(O)C1O (stereo not given)
inactive: [1] 102 % of control | [3] 102 % of control | [2] 100 % of control | [21] 107 % of control

Clc1ccccc1-c1nc2ccccc2cc1Br
inactive: [3] 97 % of control | [2] 96 % of control | [21] 92 % of control

O=C(/C(=N\O)c1ccc(Cl)cc1)c1ccc(Cl)cc1
inactive: [22] 100 % of control | [16] 89 % of control | [18] 92 % of control

COc1ccc(C=O)cc1OCc1ccccc1
inactive: dose: 100.0 mg/kg/injection, schedule: Q01DX009 (ip), vehicle: water 96 % of control | dose: 100.0 mg/kg/injection, schedule: Q04DX003 (ip), vehicle: water 100 % of control | dose: 200.0 mg/kg/injection, schedule: Q01DX009 (ip), vehicle: water 96 % of control | dose: 200.0 mg/kg/injection, schedule: Q04DX003 (ip), vehicle: water 96 % of control | dose: 400.0 mg/kg/injection, schedule: Q01DX009 (ip), vehicle: water 102 % of control | dose: 400.0 mg/kg/injection, schedule: Q04DX003 (ip), vehicle: water 100 % of control

Cc1ccc(C(=O)C2C3C=CC(C3)C2C(=O)c2ccc(C)cc2)cc1 (stereo not given)
inactive: dose: 75.0 mg/kg/injection, schedule: Q01DX009 (ip), vehicle: Klucel (hydroxypropylcellulose) (HPC) 95 % of control | dose: 150.0 mg/kg/injection, schedule: Q01DX009 (ip), vehicle: Klucel (hydroxypropylcellulose) (HPC) 90 % of control | dose: 300.0 mg/kg/injection, schedule: Q01DX009 (ip), vehicle: Klucel (hydroxypropylcellulose) (HPC) 95 % of control

CC(C)C(=O)NCc1ccccc1
inactive: [4] 104 % of control | [5] 101 % of control | [6] 90 % of control

CCOc1ccc2[nH]c(C)c(CC(=O)O)c2c1
inactive: [7] 97 % of control | [8] 103 % of control | [9] 97 % of control

O=C1C=C(C23CC4CC(CC(C4)C2)C3)Nc2ccccc2N1
inactive: [4] 94 % of control | [5] 105 % of control | [6] 94 % of control

CC(Cl)CN(CC(C)Cl)C(=O)Oc1ccc([N+](=O)[O-])cc1 (stereo not given)
inactive: dose: 100.0 mg/kg/injection, schedule: Q01DX009 (ip), vehicle: Klucel (hydroxypropylcellulose) (HPC) 98 % of control | dose: 200.0 mg/kg/injection, schedule: Q01DX009 (ip), vehicle: Klucel (hydroxypropylcellulose) (HPC) 94 % of control | dose: 400.0 mg/kg/injection, schedule: Q01DX009 (ip), vehicle: Klucel (hydroxypropylcellulose) (HPC) 98 % of control

CCCCCCCCCCOP(N)(=O)OCCCCCCCCCC
inactive: dose: 25.0 mg/kg/injection, schedule: Q01DX009 (ip), vehicle: carboxymethylcellulose (CMC) 98 % of control | dose: 50.0 mg/kg/injection, schedule: Q01DX009 (ip), vehicle: carboxymethylcellulose (CMC) 104 % of control | dose: 50.0 mg/kg/injection, schedule: Q04DX003 (ip), vehicle: carboxymethylcellulose (CMC) 89 % of control | dose: 100.0 mg/kg/injection, schedule: Q01DX009 (ip), vehicle: carboxymethylcellulose (CMC) 93 % of control | dose: 100.0 mg/kg/injection, schedule: Q04DX003 (ip), vehicle: carboxymethylcellulose (CMC) 94 % of control | dose: 225.0 mg/kg/injection, schedule: Q01DX009 (ip), vehicle: carboxymethylcellulose (CMC) 104 % of control

COc1ccc(O)c(CC(C)C)c1
inactive: dose: 100.0 mg/kg/injection, schedule: Q04DX003 (ip), vehicle: acetone 96 % of control | dose: 200.0 mg/kg/injection, schedule: Q04DX003 (ip), vehicle: acetone 102 % of control | dose: 400.0 mg/kg/injection, schedule: Q04DX003 (ip), vehicle: acetone 93 % of control

COc1ccccc1C(=O)CC(O)(C(F)(F)F)C(F)(F)F
inactive: [16] 105 % of control | [18] 103 % of control | [23] 103 % of control

CC(C)CCOC(=O)C(O)C(C)(Cl)c1ccccc1 (stereo not given)
inactive: [4] 111 % of control | [5] 91 % of control | [6] 100 % of control

O=P(NCCCl)(NCCCl)c1ccccc1
inactive: [4] 118 % of control | [5] 100 % of control | [6] 96 % of control

CCOC(=O)C(=O)c1c[nH]c2ccccc12
inactive: [17] 97 % of control | [19] 97 % of control | [20] 95 % of control

CC(O)Cc1c(Cc2ccccc2)nc(N)[nH]c1=O (stereo not given)
inactive: [11] 96 % of control | [13] 97 % of control | [15] 92 % of control

O=P(O)(O)CN(CP(=O)(O)O)CP(=O)(O)O
inactive: [3] 101 % of control | [2] 94 % of control | [21] 89 % of control

Cc1cccc(Cl)c1NC(=O)CS
inactive: [16] 104 % of control | [18] 101 % of control | [23] 106 % of control

O=C1c2ccccc2C(=O)N1CCc1ccccn1
inactive: [22] 101 % of control | [16] 95 % of control | [17] 102 % of control | [18] 93 % of control | [19] 101 % of control

CN1CCCC2C(c3ccccc3)C(C3=NCCCC3)C(c3ccccc3)CC21 (stereo not given)
inactive: [3] 88 % of control
